Data as given in patent US12649748B2, “Wee1 inhibitor and use thereof” (JIANGSU TASLY DIYI PHARMACEUTICAL CO., LTD., priority 2021, dated 2026).
Read-outs that look alike come from different tables or passages of the source.

How the values were obtained:
[1] = Membrane permeability study (Caco-2); format: in vitro ADME; settings: human; for efflux ratio at 90 min, 10 µM: Caco-2, pH 7.4, read-out: Efflux Ration; for Papp A→B at 90 min, 10 µM / Papp B→A at 90 min, 10 µM: pH 7.4, Caco-2, 10 μM; for Papp A→B at 90 min, 10 µM: A to B; for Papp B→A at 90 min, 10 µM: B to A
Method: Caco-2 cells were purchased from the […] (Rockville, MD). The cell culture medium was modified Eagle's medium (MEM) containing 10% inactivated fetal bovine serum and 1% non-essential amino acids. Cells were inoculated on polycarbonate filter membranes (Cat no. 3396) and incubated at 37° C. in a 5% CO2 incubator.
The cells were incubated for 21-28 days after inoculation for transport experiments and the apparent permeability (Papp) of Lucifer Yellow was used to characterize and verify the compactness of the cell monolayer. A stock solution of 10 mM was prepared by dissolving the compound in DMSO and diluted using Hanks Balanced Salt Solution (HBSS, Invitrogen, Cat #14025-092) containing 25 mM HEPES (pH 7.4) to obtain the working solution. A 10 μM working solution of the compound to be tested was added to the apical side and basolateral side of Caco-2 and incubated at 37° C. for 90 min. After the incubation, dilute the samples on the apical side and basolateral side, and the concentrations of compounds on the apical and basolateral sides were detected by LC-MS/MS, and the concentrations of the compounds were quantified by standard curve.

[2] = Plasma protein binding (PPB), rat; format: in vitro ADME; settings: 5 h dialysis, read-out: Plasma protein binding rate (%) Rat (converted)
Method: Sample preparation: The compound was dissolved in DMSO to a stock solution of 10 mM, then the compound was diluted with PBS to a secondary stock solution of 0.02 mM, and then the above 0.02 mM was diluted to 1 μM using blank plasma, which was the sample to be incubated.
Dialysis set-up preparation: 400 μL of blank PBS was first added to the white wells of the equilibrated dialysis plate and 200 μL of the configured plasma sample was added to the red wells, and the dialysis plate was sealed with a sealing film.
Recovery plate preparation: Two 96-well deep-well plates, labelled T0 and T5, were prepared and all plasma samples were added at n=2. 300 μL of acetonitrile (Verapamil-HCl, 4 ng/mL) was added directly to the TO plate, followed by 50 μL of blank PBS mix well for 5 min and left to stand in a 4° C. refrigerator until the end of the incubation.
Experimental Operation: The dialysis device and the T5 plate were incubated together for 5 h in a microplate thermostatic shaker (37° C., using 300 rpm or minimum speed). At the end of the incubation, 300 μL of acetonitrile (Verapamil-HCl, 4 ng/mL) was added and 50 μL of PBS solution was added. At the end of the dialysis incubation, a new 96-well deep well plate was taken. Add 50 μL of plasma well sample to the corresponding position of the 96-well plate, 300 μL of acetonitrile and 50 μL of blank PBS; take 50 μL of buffer well sample to the corresponding position of the 96-well plate, then add 300 μL of acetonitrile and 50 μL of blank plasma. Add 300 μL of acetonitrile (Verapamil-HCl, 4 ng/mL) to the plasma-containing wells of the T5 plate, and then 50 μL of PBS solution was added. Shake for 5 min to fully precipitate the proteins and centrifuge at 20,000 g for 10 min at 4° C. Add 200 μL of supernatant to 200 μL of pure water, mix well and perform LC-MS/MS analysis.
2. Data Processing and Parameter Calculation Plasma protein binding rate=[(Rpe−Rb)/Rpe]×100% Recovery=[(Rpe+Rb)/R5h]×100% Stability=(R5/R0)×100% where • Rpe=ratio of plasma-side testing sample peak area to internal standard • Rb=ratio of buffer side testing sample peak area to internal standard • R5=ratio of incubator stability sample peak area to internal standard • R0=ratio of refrigerator stability sample peak area to internal standard 3.

H1299 cells = assay: Anti-proliferative effect by Cell Titer-Glo, H1299; format: cell-based; settings: Homo sapiens, NCI-H1299, 72 h, read-out: IC50 measured value H1299
Method: Compound solutions of different concentration gradients were prepared. DMSO was dissolved to a concentration of 10 mM test compound and 10 mM reference compound AZD1775, and the compounds were serially diluted in culture medium for a total of 9 dose points, with 2 parallel replicates set at each concentration. The cell growth group without compound was used as a positive control (maximum signal control) and the medium was used as a negative control (minimum signal control), while ensuring that the final level of DMSO in each reaction well was 0.2%. After removing the medium from the 384-well plate, 25 ul of the configured compound at different concentrations was transferred into the well plate and the compound and cells were incubated in the cell incubator at 37° C. with 5% CO2 for 3 days.
The 384-well plates were removed from the cell incubator and allowed to equilibrate for 1 h to room temperature. 25 ul of Cell Titer-Glo assay was added to each well, lysed on a shaker for 2 min and then read out (Luminescence) using a BMG PHERAStar after 10 min incubation. Calculate the inhibition rate from the luminescence signal: first calculate the average of the positive control (maximum signal control) and the negative control (minimum signal control).
[formula] to calculate the rate of inhibition of the cells by different concentrations of the compounds. The IC50 of the compound on cell activity inhibition was calculated by fitting a log(inhibitor) vs. response-Variable slope model to GraphPad Prism 6. The fitted equation was: Y=Bottom+(Top−Bottom)/(1+10^((Log IC50−X)*HillSlope)), where Y represents the rate of inhibition and X represents the concentration of the known compound after Log.

CYP2D6 = CYP2D6 (Homo sapiens, UniProt P10635); assay: Inhibition of cytochrome P450, CYP2D6; format: in vitro ADME; settings: CYP2D6 enzyme, pH 7.4, probe EOMCC, read-out: CYP inhibition/% 2D6; for inhibition at 30 min, 1 µM: compound concentration 1 μM; for inhibition at 30 min, 10 µM: compound concentration 10 μM
Method: (§1) Enzymatic experiments were performed to quantify the inhibition of CYP450 enzyme activity of each isoform of CYP450 by small molecule inhibitors through fluorescence generated by the oxidation of the substrate by cytochrome P450. […] The Solution B composition used for the experiment was: 40 U/mL G6PDH (Sigma-aldrich, Cat #G6378). The substrate mix was 0.05× Solution A, 0.01× Solution B, 50 mM Potassium Phosphate, 0.01 mM BOMCC/0.01 mM EOMCC/0.001 mM DBOMF. […] The data were analyzed and processed using GraphPad Prism 6 software to obtain IC50 values.

CYP2C9 = CYP2C9 (Homo sapiens, UniProt P11712); assay: Inhibition of cytochrome P450, CYP2C9; format: in vitro ADME; settings: CYP2C9 enzyme, pH 7.4, probe BOMCC, read-out: CYP inhibition/% 2C9; for inhibition at 30 min, 1 µM: compound concentration 1 μM; for inhibition at 30 min, 10 µM: compound concentration 10 μM
Method: as §1

[3] = H1299 cells, 3 days, Cell Titer-Glo

CYP2D6, sequence (P10635 whole entry, canonical isoform): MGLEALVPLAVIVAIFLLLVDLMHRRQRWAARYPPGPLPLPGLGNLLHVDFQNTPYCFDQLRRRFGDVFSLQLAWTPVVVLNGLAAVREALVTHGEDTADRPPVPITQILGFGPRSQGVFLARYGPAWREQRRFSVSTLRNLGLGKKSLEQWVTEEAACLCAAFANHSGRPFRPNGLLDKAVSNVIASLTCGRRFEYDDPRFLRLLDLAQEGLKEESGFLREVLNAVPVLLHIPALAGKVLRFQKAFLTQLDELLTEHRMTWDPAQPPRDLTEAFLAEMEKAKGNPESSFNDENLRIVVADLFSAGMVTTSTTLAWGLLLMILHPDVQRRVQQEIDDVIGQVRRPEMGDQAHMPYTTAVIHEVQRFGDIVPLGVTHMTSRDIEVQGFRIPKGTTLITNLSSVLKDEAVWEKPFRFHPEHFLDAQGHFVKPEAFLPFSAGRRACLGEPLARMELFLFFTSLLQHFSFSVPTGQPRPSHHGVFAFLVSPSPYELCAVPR
CYP2C9, sequence (P11712 whole entry): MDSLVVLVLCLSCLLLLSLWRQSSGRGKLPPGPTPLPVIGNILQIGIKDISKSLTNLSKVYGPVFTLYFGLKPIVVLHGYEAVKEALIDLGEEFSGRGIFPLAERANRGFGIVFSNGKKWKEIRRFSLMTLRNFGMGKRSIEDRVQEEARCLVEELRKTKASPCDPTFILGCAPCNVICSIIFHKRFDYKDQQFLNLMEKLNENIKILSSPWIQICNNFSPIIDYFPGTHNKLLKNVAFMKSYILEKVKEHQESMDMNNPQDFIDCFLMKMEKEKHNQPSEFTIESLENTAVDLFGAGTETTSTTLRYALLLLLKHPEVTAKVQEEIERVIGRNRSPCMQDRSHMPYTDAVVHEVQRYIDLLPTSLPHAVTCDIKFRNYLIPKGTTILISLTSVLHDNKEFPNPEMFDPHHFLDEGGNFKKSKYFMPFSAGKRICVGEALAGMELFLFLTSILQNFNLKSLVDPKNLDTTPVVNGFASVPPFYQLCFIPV

| Structure (SMILES) | efflux ratio at 90 min, 10 µM [1] | Papp A→B at 90 min, 10 µM [1] | Papp B→A at 90 min, 10 µM [1] | fraction unbound at 5 h, 1 µM [2] | IC50 (H1299 cells; [3]) | inhibition at 30 min, 1 µM (CYP2D6) | inhibition at 30 min, 10 µM (CYP2D6) | inhibition at 30 min, 1 µM (CYP2C9) | inhibition at 30 min, 10 µM (CYP2C9) | IC50 (H1299 cells) |
| --- | --- | --- | --- | --- | --- | --- | --- | --- | --- | --- |
| Cc1cc(Nc2ncc3cnn(-c4cccc(N=S(C)(C)=O)n4)c3n2)ccc1N1CCN(C)CC1 [Compound 16] | 2.51 | 8.07 ×10⁻⁶ cm/s | 20.3 ×10⁻⁶ cm/s | 0.179 | 100 to 1000 nM | – | – | – | – | – |
| CS(C)(=O)=Nc1cccc(-n2ncc3cnc(Nc4ccc(N5CCOCC5)cc4)nc32)n1 [Compound 6] | – | – | – | – | 100 to 1000 nM | -7.6% | -19.4% | 15.3% | 13.1% | – |
| CN1CCN(c2ccc(Nc3ncc4cnn(-c5cccc(N=S(C)(C)=O)n5)c4n3)cc2)CC1 [Compound 1] | 4.67 | 8.93 ×10⁻⁶ cm/s | 41.7 ×10⁻⁶ cm/s | 0.404 | – | 2.8% | 2% | 7.5% | 18.6% | 1000 to 5000 nM |
| C=CCn1c(=O)c2cnc(Nc3ccc(N4CCN(C)CC4)cc3)nc2n1-c1cccc(C(C)(C)O)n1 [AZD-1775, reference compound] | – | 14.5 ×10⁻⁶ cm/s | 35.3 ×10⁻⁶ cm/s | 0.374 | 100 to 1000 nM | – | – | – | – | – |
| Cc1cc(Nc2ncc3cnn(-c4cccc(N=S(C)(C)=O)n4)c3n2)ccc1N1CCC(N(C)C)CC1 [Compound 14] | 3.54 | 5.86 ×10⁻⁶ cm/s | 20.8 ×10⁻⁶ cm/s | 0.246 | 100 to 1000 nM | – | – | – | – | – |
| CN1CCN(c2ccc(Nc3ncc4cnn(-c5cccc(C(C)(C)O)n5)c4n3)cc2)CC1 [Compound 2] | – | – | – | – | 1000 to 5000 nM | 0.3% | 3.1% | -10.6% | -16% | – |
